Experimental data from patent publication US20260049088A1, “TRICYCLIC HETEROCYCLIC DERIVATIVES, COMPOSITIONS AND USES THEREOF” (Danatlas Pharmaceuticals Co., Ltd., priority 2023, published 2026).
pIC50: −log10 of the molar value.

Molecular target: T1, hPARG (Homo sapiens, UniProt Q86W56)
T1 construct: made in house; host or cells: E. coli
Assay: PARG enzymatic activity assay (HTRF)
Format: biochemical
Settings: C-terminal His6-tag hPARG 65 pM, biotinylated-NAD ribosylated PARP1 substrate 8 nM
How it was run: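 His6-tagged hPARG from E. coli (65 pM final) preincubated 60 min RT with compound (10-point 4-fold dilution), then 8 nM biotinylated NAD-ribosylated PARP1 added for 10 min RT in Tris pH 7.4 buffer with EDTA, EGTA, DTT, KCl. HTRF detection (Eu-streptavidin/anti-His XL665, 620/665 nm); IC50 from 4-parameter fit against DMSO and no-enzyme controls.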

T1 sequence (Q86W56 whole entry): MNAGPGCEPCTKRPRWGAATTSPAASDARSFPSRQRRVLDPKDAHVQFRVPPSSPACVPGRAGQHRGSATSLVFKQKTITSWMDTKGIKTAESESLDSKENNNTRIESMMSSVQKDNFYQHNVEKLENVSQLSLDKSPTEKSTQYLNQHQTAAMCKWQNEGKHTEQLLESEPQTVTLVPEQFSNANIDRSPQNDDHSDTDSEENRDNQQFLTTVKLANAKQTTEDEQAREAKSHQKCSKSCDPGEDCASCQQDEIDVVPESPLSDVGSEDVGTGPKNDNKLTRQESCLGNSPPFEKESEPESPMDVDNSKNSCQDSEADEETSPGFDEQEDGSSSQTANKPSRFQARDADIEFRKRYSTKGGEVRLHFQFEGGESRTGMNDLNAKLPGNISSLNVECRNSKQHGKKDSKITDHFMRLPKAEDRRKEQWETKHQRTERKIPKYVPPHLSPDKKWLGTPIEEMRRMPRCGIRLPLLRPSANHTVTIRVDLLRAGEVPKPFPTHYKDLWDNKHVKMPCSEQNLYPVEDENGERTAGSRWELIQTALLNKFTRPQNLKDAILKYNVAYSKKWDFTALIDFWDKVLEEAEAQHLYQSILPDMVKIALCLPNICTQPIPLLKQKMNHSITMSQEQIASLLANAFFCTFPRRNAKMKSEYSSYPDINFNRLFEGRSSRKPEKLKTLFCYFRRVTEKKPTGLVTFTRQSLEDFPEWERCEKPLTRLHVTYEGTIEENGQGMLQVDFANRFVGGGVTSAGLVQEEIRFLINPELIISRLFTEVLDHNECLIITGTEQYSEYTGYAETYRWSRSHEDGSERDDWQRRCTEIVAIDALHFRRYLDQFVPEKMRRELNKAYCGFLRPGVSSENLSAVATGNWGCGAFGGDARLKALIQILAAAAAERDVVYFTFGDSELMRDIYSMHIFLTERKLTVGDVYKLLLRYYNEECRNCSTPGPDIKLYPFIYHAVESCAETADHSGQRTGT

Row | pIC50 | Compound
1 | ≥ 7.00 | CN(C[C@H]1CCOC1)c1ncnc2c1c1ccc(S(=O)(=O)NC3(C#N)CC3)cc1n2-c1nnc(C(F)F)s1 [Example 57, (R)-N-(1-Cyanocyclopropyl)-9-(5-(difluoromethyl)-1,3,4-thiadiazol-2-yl)-4-(methyl((tetrahydrofuran-3-yl)methyl)amino)-9H-pyrimido[4,5-b]indole-7-sulfonamide]
2 | 6.00 to 7.00 | CN(CCN1CCC(F)(F)CC1)c1ncnc2c1c1ccc(S(=O)(=O)NC3(C#N)CC3)cc1n2-c1nnc(C(F)F)s1 [Example 77, N-(1-Cyanocyclopropyl)-9-(5-(difluoromethyl)-1,3,4-thiadiazol-2-yl)-4-((2-(4,4-difluoropiperidin-1-yl)ethyl)(methyl)amino)-9H-pyrimido[4,5-b]indole-7-sulfonamide]
3 | ≥ 7.00 | N#CC1(NS(=O)(=O)c2ccc3c4c(N5CCC(N6CCC(F)(F)CC6)[C@@H](F)C5)ncnc4n(-c4nnc(C(F)F)s4)c3c2)CC1 (stereo partly drawn) [Example 36, N-(1-Cyanocyclopropyl)-9-(5-(difluoromethyl)-1,3,4-thiadiazol-2-yl)-4-((3′S)-3′,4,4-trifluoro-[1,4′-bipiperidin]-1′-yl)-9H-pyrimido[4,5-b]indole-7-sulfonamide]
4 | 6.00 to 7.00 | CN(CCn1ccnc1)c1ncnc2c1c1ccc(S(=O)(=O)NC3(C#N)CC3)cc1n2-c1nnc(C(F)F)s1 [Example 59, 4-((2-(1H-Imidazol-1-yl)ethyl)(methyl)amino)-N-(1-cyanocyclopropyl)-9-(5-(difluoromethyl)-1,3,4-thiadiazol-2-yl)-9H-pyrimido[4,5-b]indole-7-sulfonamide]
5 | ≥ 7.00 | CN(CCN1CCS(=O)(=O)CC1)c1ncnc2c1c1ccc(S(=O)(=O)NC3(C#N)CC3)cc1n2-c1nnc(C(F)F)s1 [Example 78, N-(1-Cyanocyclopropyl)-9-(5-(difluoromethyl)-1,3,4-thiadiazol-2-yl)-4-((2-(1,1-dioxidothiomorpholino)ethyl)(methyl)amino)-9H-pyrimido[4,5-b]indole-7-sulfonamide]
6 | 6.00 to 7.00 | CN(CCN1CCCC1=O)c1ncnc2c1c1ccc(S(=O)(=O)NC3(C#N)CC3)cc1n2-c1nnc(C(F)F)s1 [Example 61, N-(1-Cyanocyclopropyl)-9-(5-(difluoromethyl)-1,3,4-thiadiazol-2-yl)-4-(methyl(2-(2-oxopyrrolidin-1-yl)ethyl)amino)-9H-pyrimido[4,5-b]indole-7-sulfonamide]
7 | 6.00 to 7.00 | N#CC1(NS(=O)(=O)c2ccc3c4c(OCC5COCCN5)ncnc4n(-c4nnc(C(F)F)s4)c3c2)CC1 (centres unmarked) [Example 92, N-(1-cyanocyclopropyl)-9-(5-(difluoromethyl)-1,3,4-thiadiazol-2-yl)-4-(morpholin-3-ylmethoxy)-9H-pyrimido[4,5-b]indole-7-sulfonamide]
8 | ≥ 7.00 | CCN(CC)CCOc1ncnc2c1c1ccc(S(=O)(=O)NC3(C#N)CC3)cc1n2-c1nnc(C(F)F)s1 [Example 10, N-(1-Cyanocyclopropyl)-4-(2-(diethylamino)ethoxy)-9-(5-(difluoromethyl)-1,3,4-thiadiazol-2-yl)-9H-pyrimido[4,5-b]indole-7-sulfonamide]
9 | ≥ 7.00 | Cc1nnc2n1CCN(c1ncnc3c1c1ccc(S(=O)(=O)NC4(C#N)CC4)cc1n3-c1nnc(C(F)F)s1)C2 [Example 47, N-(1-Cyanocyclopropyl)-9-(5-(difluoromethyl)-1,3,4-thiadiazol-2-yl)-4-(3-methyl-5,6-dihydro-[1,2,4]triazolo[4,3-a]pyrazin-7(8H)-yl)-9H-pyrimido[4,5-b]indole-7-sulfonamide]
10 | ≥ 7.00 | CN1CCN(c2ncnc3c2c2ccc(S(=O)(=O)NC4(C#N)CC4)cc2n3-c2nnc(C(F)F)s2)C[C@@H]1CO [Example 43, (R)-N-(1-Cyanocyclopropyl)-9-(5-(difluoromethyl)-1,3,4-thiadiazol-2-yl)-4-(3-(hydroxymethyl)-4-methylpiperazin-1-yl)-9H-pyrimido[4,5-b]indole-7-sulfonamide]
11 | ≥ 7.00 | CCN(CC)C1CCN(c2ncnc3c2c2ccc(S(=O)(=O)NC4(C#N)CC4)cc2n3-c2nnc(C(F)F)s2)CC1 [Example 28, N-(1-Cyanocyclopropyl)-4-(4-(diethylamino)piperidin-1-yl)-9-(5-(difluoromethyl)-1,3,4-thiadiazol-2-yl)-9H-pyrimido[4,5-b]indole-7-sulfonamide]
12 | ≥ 7.00 | CCN(CC)[C@@H]1CCN(c2ncnc3c2c2ccc(S(=O)(=O)NC4(C#N)CC4)cc2n3-c2nnc(C(F)F)s2)CC1(F)F [Example 51, (R)-N-(1-Cyanocyclopropyl)-4-(4-(diethylamino)-3,3-difluoropiperidin-1-yl)-9-(5-(difluoromethyl)-1,3,4-thiadiazol-2-yl)-9H-pyrimido[4,5-b]indole-7-sulfonamide]
13 | ≥ 7.00 | N#CC1(NS(=O)(=O)c2ccc3c4c(N5CCO[C@@H](CO)C5)ncnc4n(-c4nnc(C(F)F)s4)c3c2)CC1 [Example 42, (R)-N-(1-Cyanocyclopropyl)-9-(5-(difluoromethyl)-1,3,4-thiadiazol-2-yl)-4-(2-(hydroxymethyl)morpholino)-9H-pyrimido[4,5-b]indole-7-sulfonamide]
14 | ≥ 7.00 | CSc1ncnc2c1c1ccc(S(=O)(=O)NC3(C#N)CC3)cc1n2-c1nnc(C(F)F)s1 [Example 25, N-(1-cyanocyclopropyl)-9-(5-(difluoromethyl)-1,3,4-thiadiazol-2-yl)-4-(methylthio)-9H-pyrimido[4,5-b]indole-7-sulfonamide]
15 | ≥ 7.00 | N#CC1(NS(=O)(=O)c2ccc3c4c(OCCn5cccn5)ncnc4n(-c4nnc(C(F)F)s4)c3c2)CC1 [Example 12, 4-(2-(1H-Pyrazol-1-yl)ethoxy)-N-(1-cyanocyclopropyl)-9-(5-(difluoromethyl)-1,3,4-thiadiazol-2-yl)-9H-pyrimido[4,5-b]indole-7-sulfonamide]
16 | ≥ 7.00 | CN(C)CCN(C)c1ncnc2c1c1ccc(S(=O)(=O)NC3(C#N)CC3)cc1n2-c1nnc(C(F)F)s1 [Example 62, N-(1-Cyanocyclopropyl)-9-(5-(difluoromethyl)-1,3,4-thiadiazol-2-yl)-4-((2-(dimethylamino)ethyl)(methyl)amino)-9H-pyrimido[4,5-b]indole-7-sulfonamide]
17 | ≥ 7.00 | Cc1cnc2n1CCN(c1ncnc3c1c1ccc(S(=O)(=O)NC4(C#N)CC4)cc1n3-c1nnc(C(F)F)s1)C2 [Example 53, N-(1-Cyanocyclopropyl)-9-(5-(difluoromethyl)-1,3,4-thiadiazol-2-yl)-4-(3-methyl-5,6-dihydroimidazo[1,2-a]pyrazin-7(8H)-yl)-9H-pyrimido[4,5-b]indole-7-sulfonamide]
18 | 6.00 to 7.00 | N#CC1(NS(=O)(=O)c2ccc3c4c(SCCN5CCOCC5)ncnc4n(-c4nnc(C(F)F)s4)c3c2)CC1 [Example 83, N-(1-Cyanocyclopropyl)-9-(5-(difluoromethyl)-1,3,4-thiadiazol-2-yl)-4-((2-morpholinoethyl)thio)-9H-pyrimido[4,5-b]indole-7-sulfonamide]
19 | ≥ 7.00 | N#CC1(NS(=O)(=O)c2ccc3c4c(NCC5COCCO5)ncnc4n(-c4nnc(C(F)F)s4)c3c2)CC1 (centres unmarked) [Example 79, 4-(((1,4-Dioxan-2-yl)methyl)amino)-N-(1-cyanocyclopropyl)-9-(5-(difluoromethyl)-1,3,4-thiadiazol-2-yl)-9H-pyrimido[4,5-b]indole-7-sulfonamide]
20 | ≥ 7.00 | N#CC1(NS(=O)(=O)c2ccc3c4c(N5CCn6cnnc6C5)ncnc4n(-c4nnc(C(F)F)s4)c3c2)CC1 [Example 46, N-(1-Cyanocyclopropyl)-9-(5-(difluoromethyl)-1,3,4-thiadiazol-2-yl)-4-(5,6-dihydro-[1,2,4]triazolo[4,3-a]pyrazin-7(8H)-yl)-9H-pyrimido[4,5-b]indole-7-sulfonamide]
21 | ≥ 7.00 | CCN(CC)[C@H]1CCN(c2ncnc3c2c2ccc(S(=O)(=O)NC4(C#N)CC4)cc2n3-c2nnc(C(F)F)s2)C[C@@H]1F [Example 32, N-(1-Cyanocyclopropyl)-4-((3S,4S)-4-(diethylamino)-3-fluoropiperidin-1-yl)-9-(5-(difluoromethyl)-1,3,4-thiadiazol-2-yl)-9H-pyrimido[4,5-b]indole-7-sulfonamide]
22 | ≥ 7.00 | CN1CCN(CCN(C)c2ncnc3c2c2ccc(S(=O)(=O)NC4(C#N)CC4)cc2n3-c2nnc(C(F)F)s2)C1=O [Example 60, N-(1-Cyanocyclopropyl)-9-(5-(difluoromethyl)-1,3,4-thiadiazol-2-yl)-4-(methyl(2-(3-methyl-2-oxoimidazolidin-1-yl)ethyl)amino)-9H-pyrimido[4,5-b]indole-7-sulfonamide]
23 | ≥ 7.00 | CN(C[C@@H]1CCOC1)c1ncnc2c1c1ccc(S(=O)(=O)NC3(C#N)CC3)cc1n2-c1nnc(C(F)F)s1 [Example 56, (S)-N-(1-Cyanocyclopropyl)-9-(5-(difluoromethyl)-1,3,4-thiadiazol-2-yl)-4-(methyl((tetrahydrofuran-3-yl)methyl)amino)-9H-pyrimido[4,5-b]indole-7-sulfonamide]
24 | ≥ 7.00 | N#CC1(NS(=O)(=O)c2ccc3c4c(N5CCn6ccnc6C5)ncnc4n(-c4nnc(C(F)F)s4)c3c2)CC1 [Example 44, N-(1-Cyanocyclopropyl)-9-(5-(difluoromethyl)-1,3,4-thiadiazol-2-yl)-4-(5,6-dihydroimidazo[1,2-a]pyrazin-7(8H)-yl)-9H-pyrimido[4,5-b]indole-7-sulfonamide]
25 | ≥ 7.00 | CN(CC1COCCN1C)c1ncnc2c1c1ccc(S(=O)(=O)NC3(C#N)CC3)cc1n2-c1nnc(C(F)F)s1 (centres unmarked) [Example 64, N-(1-Cyanocyclopropyl)-9-(5-(difluoromethyl)-1,3,4-thiadiazol-2-yl)-4-(methyl((4-methylmorpholin-3-yl)methyl)amino)-9H-pyrimido[4,5-b]indole-7-sulfonamide]
26 | ≥ 7.00 | CCN(CC)CCN(C)c1ncnc2c1c1ccc(S(=O)(=O)NC3(C#N)CC3)cc1n2-c1nnc(C(F)F)s1 [Example 15, N-(1-Cyanocyclopropyl)-4-((2-(diethylamino)ethyl)(methyl)amino)-9-(5-(difluoromethyl)-1,3,4-thiadiazol-2-yl)-9H-pyrimido[4,5-b]indole-7-sulfonamide]
